The results in this text go back to patent US10759777B2, “Carbazole-containing amides, carbamates, and ureas as cryptochrome modulators” (Synchronicity Pharma, Inc., priority 2014, dated 2020).

Assay [1] has as its system core clock genes Per2, Bmal1, Cry2 in liver. Nature of the assay: Four day study, liver core clock gene mRNA in ICR mice. The class given is in vivo, mouse. Particulars: 50 mg/kg PO BID 4 days; for liver Per2 expression: ZT6. Here is the method: Male ICR mice (weighing 30-35 g), obtained from Charles River Laboratories (Hollister, Calif.), were used for the experiment following at least 3 days of acclimation. Mice were dosed with vehicle (WFI or 10% Kolliphor) or compound (50 mg/kg, dose volume 5 mL/kg, PO) for 4 days BID (twice a day), beginning in the afternoon of the first day. The last dose of compound or vehicle was administered on the morning of harvest. On the day of harvest (6 hours following the final dose), mice were euthanized by CO2 asphyxiation and 50 mg of liver tissue was excised and placed in a tube containing 500 μl of RNA later.
E.Z.N.A.® HP Total RNA Isolation Kits (R6812-01 and the protocol described in the Manual, Revised 2010) were utilized to prepare and isolate RNA from the liver samples. To prepare the RNA samples, 10-30 mg of sample was removed from RNA-Later and placed in a 1.5 ml microfuge tube. GTC lysis buffer (700 μl) was added to the tissue, which was homogenized with a rotor-stator homogenizer (e.g. Tissue-Tearor, Model #985370 BioSpec Products with 4.5 mm probe, Cat. #985370-04), and then centrifuged at full speed (≥13,000×g) for 5 minutes. The cleared supernatant was transferred by pipetting to a DNA Clearance Column Pre-inserted in a 2 mL Collection Tube. The assembled column was centrifuged at 13,000×g for 1 minute, and the flow-through was saved. An equal volume (700 μl) of 70% ethanol was added to the lysate and mixed. The sample was then applied to a HiBind RNA spin column placed into a 2 ml collection tube, which was centrifuged at 10,000×g for 60 seconds at room temperature. RNA Wash Buffer I (250 μl) was added by pipetting directly onto a new HiBind RNA column inserted in a 2 ml collection tube. The assembled column was centrifuged at 10,000×g for 60 seconds. The RNA column was placed into a new 2 ml collection tube. DNase I stock solution is pipetted (75 μl) directly onto the surface of the HiBind RNA resin in each column (Using DNAse Digestion with RNase Free DNase Set (E1091): for each HiBind RNA column, the DNase I stock solution was prepared as followed: E.Z.N.A.® DNase I Digestion Buffer 73.5 μl, RNase Free DNase I (20 Kunitz/μl) 1.5 μl=Total Volume 75 μl). The column with bound RNA was incubated at room temperature (25-30° C.) for 15 minutes. RNA Wash Buffer I (500 μl) was added to the column and placed on a bench top for 2 minutes. After centrifuging at 10,000×g for 60 seconds, discarding the flow-through, 500 μl of RNA Wash Buffer II was added and centrifuged at 10,000×g for 60 seconds. Another 500 μl of RNA Wash Buffer II was added and the column assembly was centrifuged at 10,000×g for 60 seconds. The column was centrifuged for 2 minutes at maximum speed to completely dry the HiBind matrix. The column was placed in a clean 1.5 ml microcentrifuge tube and 40-70 μl of molecular biology grade water is added. After sitting for 1 minute, the column was centrifuged for 2 minutes at maximum speed to elute the RNA. The isolated RNA was collected into the collection tube.
RediPlate 96 RiboGreen RNA Quantification Kit (Invitrogen) RediPlate standard curve was prepared by transferring 20 l reconstituted RNA standard to a RediPlate well reconstituted in 180 l RediPlate TE buffer. For liver RNAs prepared from 30-100 mg of tissue using a kit similar to the Omega Bio-Tek HP Total RNA Kit and eluted in RNAse-free water in a volume of 50 l (microliters), 5 l of the total RNA is diluted in 195 l of RediPlate TE buffer (1:40 dilution of RNA), mix. After transferring 5 l to RediPlate well reconstituted in 195 l TE buffer and incubating 10 min. at RT, Fluorescence Intensity of wells with standards and samples were read in a Tecan M200 with Excitation set at 480 nm and Emission set at 520 nm with the gain set to ˜70%. Alternatively, one can use the FlexStation 3 with Ex 488 nm and Em 525 nm and a Cutoff of 515 nm.

Assay [2] has as its system stable U20S reporter cells harboring Per2-dLuc. Nature of the assay: Per2 assay for evaluating the potency of test compounds (Per2-dLuc luminescence amplitude). The class given is cell-based. On the procedure: Compounds were screened by using a high-throughput circadian assay system as previously described in Zhang, E. E. et al. Cell, 2009, 139, 199-210. In brief, stable U20S reporter cells harboring Per2-dLuc were plated at a density of 30,000 cells/well in Corning 96-well, solid white, flat bottom, TC-treated microplates (Corning®), and incubated for 48 hours at 37° C. in the presence of 5% CO2 in a medium of Dulbecco's Modified Eagle Medium (DMEM) supplemented with 10% fetal bovine serum (FBS) and penicillin (100 units/mL)-streptomycin (100 μg/mL). […] DMSO stocks are then serially diluted in DMSO, typically diluting 3-fold for each dilution step. […] Immediately following synchronization, 1 μL of compound dilution is added to each well. Plates are sealed, shaken briefly, and gene expression was monitored by measuring luminescence (Tecan® Infinite M200 or Tecan® Infinite M200 Pro) continuously for a minimum of 3 days at 35° C. Raw luminescence data (counts) are first analyzed using Multicycle™ software (Actimetrics, Inc.) to determine the amplitude (amp), period, and phase (phz) for each compound concentration. The period length for control wells (i.e. no compound, DMSO only) should be 26-30 h. Amp data are then plotted against the logarithm compound concentration (M) and analyzed by nonlinear regression analysis to determine the EC50.

Assay [3] has as its system rat model of cortisone-induced insulin resistance. Nature of the assay: Cortisone induced insulin resistance in rats. The class given is in vivo. The note with it: cortisone 30 mg/kg sc with vehicle po. Here is the method:
Animals were dosed with cortisone (30 mg/kg sc qd) in combination with test compounds for 6 days and then terminated 27 hours after the final dose of cortisone. A reference standard (Mifepristone) was also included. Cortisone 21-acetate (Sigma C-3130) was supplied by RenaSci and administered using a dose volume of 5 ml/kg via the subcutaneous route as a fine suspension in 1% methylcellulose. […] Mifepristone (Sigma M8046) was provided by RenaSci.
Glucose and insulin determinations were performed on plasma samples obtained from a tail vein bleed taken after a 12 h fast, approximately 27 h after the last cortisone dose. Animals were then terminated and a terminal (cardiac) blood sample taken from which plasma was prepared.
Thirty four male Sprague Dawley rats (weight range 200-250 g) were ordered from Charles River, Margate, Kent, UK. […] Subsequently, animals underwent a 3 day baseline period during which they were dosed once daily with vehicle at t=0 h (07:00). […] Body weight was recorded immediately before dosing began at 07:00 (t=0 h).
On Day 6 of dosing rats were fasted for 12 h beginning at 22:30 (timed to coincide with the Day 7 termination). […] At 10:30 on Day 7, 27 h after the final dose of cortisone, a blood sample (300 μl) was taken from the lateral tail vein into tubes containing EDTA (Sarstedt 16.444). The blood was centrifuged and resultant plasma aliquot stored at −75° C. The animals were euthanized by CO2 asphyxiation followed by cervical dislocation. Terminal blood (approximately 10 ml) was collected by cardiac puncture into tubes containing EDTA (Sarstedt 5 ml 32.332) and then centrifuged and plasma stored at −75° C. The tail vein plasma was analyzed for glucose (n=2) using a commercial clinical reagent (Thermoelectron Infinity glucose reagent (TR15421) and for insulin (n=1) using the Mercodia ultrasensitive rat insulin rat ELISA (10-1251-10).
Plasma glucose and insulin were analyzed by robust regression or general linear model with treatment as a factor and bleeding order and baseline body weight as covariates. A log transformation was used if appropriate. Appropriate multiple comparison tests (two-tailed) were used to determine significant differences from the vehicle group and from the Cortisone group. P<0.05 was considered to be statistically significant.

Consider `O=C1C2CCC(C2)N1CC(O)Cn1c2ccc(F)cc2c2cc(F)ccc21` (stereo not drawn) [Compound 48, 2-(3-(3,6-difluoro-9H-carbazol-9-yl)-2-hvdroxypropyl)-2-azabicyclo[2.2.1]heptan-3-one], for which, in assay [1], the “liver Per2 expression” value is “suppression”. Further, in assay [1] (liver), the Cry2 transcripts result is on record as “decrease” and the “increase in Bmal1 mRNA at ZT6” value is on record as 8 fold.

On to `COC1CCCN(CC(O)Cn2c3ccc(F)cc3c3cc(F)ccc32)C1=O` (stereo not drawn) [Compound 57, 1-(3-(3,6-difluoro-9H-carbazol-9-yl)-2-hydroxypropyl)-3-methoxypiperidin-2-one], for which the “liver Per2 expression” value in assay [1] is on record as “suppression”. In addition, in assay [1] (liver), the “increase in Bmal1 mRNA at ZT6” value is reported as not below 2 fold.

One may read the EC50 as the concentration giving half of the maximal effect. A higher EC50 goes with weaker potency. The compound `C[C@@H]1CN(C[C@H](O)Cn2c3ccccc3c3ccccc32)C(=O)N1` [Compound 138, (R)-1-((R)-3-(9H-carbazol-9-yl)-2-hydropropyl)-4-methylimidazolidin-2-one] yielded an EC50 in assay [2] of 520 nM.

For `C[C@]12CCC(=O)C=C1CC[C@@H]1[C@@H]2C(=O)C[C@@]2(C)[C@H]1CC[C@]2(O)C(=O)CO` [Cortisone], in assay [3], the HOMA-IR is recorded as 95.57+/−11.4 units and the fasted plasma insulin was determined as 8.19 ± 0.91 ng/mL. For the same compound, the fasted plasma glucose in assay [3] (rats) stood at 10.17 ± 0.51 mM.
